Experiment [1] is described as follows: Luminescence Cell-Based Dose HTS Response to Identify Inhibitors of 5'UTR Stem-Loop Driven Prion Protein mRNA Translation in H4-C Neuroglioblastoma Cells. [Related pubchem assays (depositor defined):AID1814, AID1827]. The experiment is classed as functional.
Experiment [2] is described as follows: Luminescence Cell-Based Dose Response HTS to Identify Activators of 5'UTR Stem-Loop Driven Prion Protein mRNA Translation in H4-C Neuroglioblastoma Cells. [Related pubchem assays: 1829 (Project Summary), 1814 (Primary HTS)]. It is filed as functional.
The nature of experiment [3]: Luminescence Cell-Based Dose Retest to Confirm Activators of 5'UTR Stem-Loop Driven Alpha-Synuclein mRNA Translation in H4 Neuroglioblastoma Cells. [Related pubchem assays (depositor defined):AID1813, AID1829]. The experiment is classed as functional.
Experiment [4] in a line: Shn3 3'UTR reporter inhibitors, dose response, cell-based, Clone20 osteoblasts, firefly luciferase, cherry-picked (AID 624132).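 Further: firefly luciferase luminescence from reporter carrying the Shn3 3'UTR in osteoblasts.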 It is filed as functional.
Experiment [5] can be described thus: Luminescence Cell-Based Dose Confirmation HTS to Identify Inhibitors of 5'UTR Stem-Loop Driven Alpha-Synuclein mRNA Translation in H4 Neuroglioblastoma Cells. [Related pubchem assays: 1827 (Project Summary), 1813 (Primary HTS)]. It is filed as functional.
Experiment [6] can be described thus: Luminescence Cell-Based Dose Response HTS to Identify Activators of Luciferase Translation or Activity in H4-C Neuroglioblastoma Cells. [Related pubchem assays: 1829 (Project Summary), 1814 (Primary HTS)]. It is filed as functional.
A short description of experiment [7]: Luminescence Cell-Based Dose Response HTS to Identify Inhibitors of Luciferase Translation or Activity in H4-C Neuroglioblastoma Cells. [Related pubchem assays: 1813 (Primary HTS), 1827 (Project Summary)]. It is filed as functional.
Experiment [8] in a line: cytotoxicity in HEK-293T cells, dose response, cytotoxicity control for TCR NF-kB inhibitor project, luminescence, T-cell screen hits (AID 489026).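 Further: cells exposed to compound about 14 hours before the viability readout.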 The experiment is classed as functional, cell-based.
Experiment [9] is described as follows: inhibitors of firefly luciferase expression or activity, dose response, H4 neuroglioma cells, luminescence (AID 1990). It is filed as functional, cell-based.
A short description of experiment [10]: Luminescence Cell-Based Dose Response HTS to Identify Inhibitors of 5'UTR Stem-Loop Driven Prion Protein mRNA Translation in H4 Neuroglioblastoma Cells. [Related pubchem assays: 1827 (Project Summary), 1813 (Primary HTS)]. The experiment is classed as functional.
A short description of experiment [11]: inhibitors of SNCA 5'UTR-driven reporter translation, confirmation, H4 neuroglioma cells, luminescence (AID 1988). It is filed as functional, cell-based.
The nature of experiment [12]: control 3'UTR Renilla luciferase suppression, dose response, counter-screen for Shn3 inhibitor project, cell-based, Clone20-Shn3RL, cherry-picked (AID 624133). The experiment is classed as functional.
Experiment [13] can be described thus: HepG2 cell cytotoxicity, dose response, cytotoxicity control for Shn3 inhibitor project, CellTiter-Glo, cherry-picked (AID 624134). It is filed as functional, cell-based. Background: Cellular ATP, detected with luciferase, serves as a proxy for viable cell number.
Experiment [14] concerns the target T1, G-protein coupled receptor 35 (Homo sapiens, UniProt Q9HC97). The experiment is described as follows: SAR analysis of Antagonists of the GPR35 Receptor using an Image-Based Assay - Set 6. [Related pubchem assays (depositor defined):AID2013, AID2026]. It is filed as functional.
For experiment [15], the target named is G-protein coupled receptor 55 (Homo sapiens, UniProt Q9Y2T6). The experiment is described as follows: SAR Analysis of Selective Antagonists of GPR55 using an Image-Based Assay - Set 4. [Related pubchem assays (depositor defined):AID2013, AID2026]. It is filed as functional.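 Further: antagonism of response to 5 µM lysophosphatidylinositol agonist.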
Sequence of G-protein coupled receptor 55 (Q9Y2T6 whole entry): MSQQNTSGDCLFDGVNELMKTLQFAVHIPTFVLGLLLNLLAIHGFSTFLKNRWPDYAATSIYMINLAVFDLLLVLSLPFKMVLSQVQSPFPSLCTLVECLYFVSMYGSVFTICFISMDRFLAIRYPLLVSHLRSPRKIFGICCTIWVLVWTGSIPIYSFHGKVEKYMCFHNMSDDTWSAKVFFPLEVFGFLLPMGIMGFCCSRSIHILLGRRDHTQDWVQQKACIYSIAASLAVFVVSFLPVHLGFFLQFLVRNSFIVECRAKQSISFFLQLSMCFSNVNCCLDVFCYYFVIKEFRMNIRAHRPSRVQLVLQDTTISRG
The target of experiment [16] is T2, Cannabinoid receptor 2 (Homo sapiens, UniProt P34972). The experiment is described as follows: SAR analysis of agonists of the Cannabinoid Receptor 2 using an Image-Based Assay - Set 3. [Related pubchem assays (depositor defined):AID2013, AID2026]. It is filed as functional.
T2 sequence (P34972 whole entry): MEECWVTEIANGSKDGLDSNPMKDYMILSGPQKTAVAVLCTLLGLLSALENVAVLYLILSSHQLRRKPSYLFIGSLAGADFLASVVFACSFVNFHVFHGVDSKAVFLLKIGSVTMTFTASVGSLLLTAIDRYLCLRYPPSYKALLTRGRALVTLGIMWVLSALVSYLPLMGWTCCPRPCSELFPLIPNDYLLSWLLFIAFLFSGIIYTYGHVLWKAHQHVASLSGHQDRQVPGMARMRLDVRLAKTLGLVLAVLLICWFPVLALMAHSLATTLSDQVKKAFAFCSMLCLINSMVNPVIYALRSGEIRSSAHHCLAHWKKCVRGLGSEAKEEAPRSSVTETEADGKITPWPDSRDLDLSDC
Experiment [17] concerns the target T1, G-protein coupled receptor 35. The experiment is described as follows: SAR analysis of Agonists of the GPR35 Receptor using an Image-Based Assay - Set 4. [Related pubchem assays (depositor defined):AID2013, AID2026]. It is filed as functional.
Experiment [18] deals with T3, Cannabinoid receptor 1 (Homo sapiens, UniProt P21554). The experiment is described as follows: SAR analysis of antagonists of the Cannabinoid Receptor 1 using an Image-Based Assay - Set 4. [Related pubchem assays (depositor defined):AID2013, AID2026]. It is filed as functional.
T3 sequence (P21554 whole entry): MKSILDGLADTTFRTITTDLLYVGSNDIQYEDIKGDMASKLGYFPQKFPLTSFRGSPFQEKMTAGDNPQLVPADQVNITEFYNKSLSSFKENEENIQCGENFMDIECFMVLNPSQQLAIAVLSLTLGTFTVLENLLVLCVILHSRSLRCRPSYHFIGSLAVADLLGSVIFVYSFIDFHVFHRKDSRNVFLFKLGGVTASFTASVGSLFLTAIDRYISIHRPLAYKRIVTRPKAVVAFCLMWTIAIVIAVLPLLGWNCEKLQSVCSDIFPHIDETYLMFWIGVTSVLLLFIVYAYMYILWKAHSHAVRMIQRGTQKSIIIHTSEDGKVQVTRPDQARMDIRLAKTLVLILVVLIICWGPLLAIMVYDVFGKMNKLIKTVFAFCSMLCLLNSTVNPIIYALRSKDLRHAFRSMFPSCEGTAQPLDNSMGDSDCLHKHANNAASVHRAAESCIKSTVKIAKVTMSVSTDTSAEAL
Experiment [19] addresses T3, Cannabinoid receptor 1. The experiment in a line: SAR analysis of agonists of the Cannabinoid Receptor 1 using an Image-Based Assay - Set 4. [Related pubchem assays (depositor defined):AID2013, AID2026]. The experiment is classed as functional.
For experiment [20], the target named is T2, Cannabinoid receptor 2. The experiment in a line: SAR analysis of antagonists of the Cannabinoid Receptor 2 using an Image-Based Assay - Set 3. [Related pubchem assays (depositor defined):AID2013, AID2026]. It is filed as functional.
The target in experiment [21] is Trypsin (Sus scrofa, UniProt P00761). The experiment is described as follows: porcine trypsin inhibitors, dose response, selectivity assay for Rce1 protease inhibitor project, biochemical, quenched peptide fluorescence, cherry-pick (AID 488789).
Sequence of Trypsin (P00761 whole entry): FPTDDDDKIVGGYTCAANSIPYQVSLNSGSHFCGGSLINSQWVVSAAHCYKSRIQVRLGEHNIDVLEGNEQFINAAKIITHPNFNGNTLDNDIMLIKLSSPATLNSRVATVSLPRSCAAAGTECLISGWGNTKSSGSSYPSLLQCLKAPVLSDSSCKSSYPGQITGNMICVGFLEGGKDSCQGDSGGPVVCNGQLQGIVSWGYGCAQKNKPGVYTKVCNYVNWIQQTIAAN
Experiment [22] has as its target T4, CAAX prenyl protease 2 (Saccharomyces cerevisiae S288c, UniProt Q03530).
T4 sequence (Q03530 whole entry): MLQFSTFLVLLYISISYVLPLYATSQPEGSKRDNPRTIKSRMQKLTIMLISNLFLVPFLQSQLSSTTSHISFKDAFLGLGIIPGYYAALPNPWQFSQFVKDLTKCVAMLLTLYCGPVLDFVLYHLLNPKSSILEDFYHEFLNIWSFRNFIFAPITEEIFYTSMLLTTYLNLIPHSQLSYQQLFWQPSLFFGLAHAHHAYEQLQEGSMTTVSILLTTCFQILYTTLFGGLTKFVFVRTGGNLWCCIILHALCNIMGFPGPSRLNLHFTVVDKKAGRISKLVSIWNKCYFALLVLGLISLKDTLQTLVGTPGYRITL
The experiment is classed as biochemical.

A short description of experiment [23]: mammalian cell cytotoxicity, dose response, cytotoxicity control, plate reader, cherry-pick samples (AID 504397). The experiment is classed as functional, cell-based.
Experiment [24] has as its target Sphingosine 1-phosphate receptor 1 (Homo sapiens, UniProt P21453). The experiment in a line: Late-stage fluorescence-based dose-response cell-based assay to identify agonists of the Sphingosine 1-Phosphate Receptor 4 (S1P4): Sphingosine 1-Phosphate Receptor 1 (S1P1) counterscreen assay. [Related pubchem assays (depositor defined):AID1509, AID1523, AID1563, AID1686, AID1701, AID1801, AID463107, AID463225, AID504400]. The experiment is classed as functional.

The target of experiment [25] is Sphingosine 1-phosphate receptor 3 (Homo sapiens, UniProt Q99500). The experiment in a line: Late-stage fluorescence-based dose-response cell-based assay to identify agonists of the Sphingosine 1-Phosphate Receptor 4 (S1P4): Sphingosine 1-Phosphate Receptor 3 (S1P3) counterscreen assay. [Related pubchem assays (depositor defined):AID1509, AID1523, AID1563, AID1686, AID1701, AID1801, AID463107, AID463225, AID504400]. The experiment is classed as functional. (A counterscreen serves to expose hits that act by an unwanted route or on another target.)
Sequence of Sphingosine 1-phosphate receptor 3 (Q99500 whole entry): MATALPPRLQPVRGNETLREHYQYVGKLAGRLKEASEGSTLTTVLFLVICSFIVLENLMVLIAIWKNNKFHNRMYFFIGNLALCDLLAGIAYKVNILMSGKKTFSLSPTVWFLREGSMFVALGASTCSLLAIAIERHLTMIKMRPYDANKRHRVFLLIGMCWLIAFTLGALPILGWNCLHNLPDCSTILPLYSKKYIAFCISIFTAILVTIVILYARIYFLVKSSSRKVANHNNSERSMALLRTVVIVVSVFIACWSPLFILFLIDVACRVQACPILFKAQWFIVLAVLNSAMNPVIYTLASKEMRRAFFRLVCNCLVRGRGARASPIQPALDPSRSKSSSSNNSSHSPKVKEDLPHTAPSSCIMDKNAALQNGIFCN

Experiment [26] has as its target Sphingosine 1-phosphate receptor 2 (Homo sapiens, UniProt O95136). The experiment in a line: Late-stage fluorescence-based dose-response cell-based assay to identify agonists of the Sphingosine 1-Phosphate Receptor 4 (S1P4): Sphingosine 1-Phosphate Receptor 2 (S1P2) counterscreen assay. [Related pubchem assays (depositor defined):AID1509, AID1523, AID1563, AID1686, AID1701, AID1801, AID463107, AID463225, AID504400]. It is filed as functional.

Experiment [27] concerns the target Sphingosine 1-phosphate receptor 5 (Homo sapiens, UniProt Q9H228). The experiment in a line: Late-stage fluorescence-based dose-response cell-based assay to identify agonists of the Sphingosine 1-Phosphate Receptor 4 (S1P4): Sphingosine 1-Phosphate Receptor 5 (S1P5) counterscreen assay. [Related pubchem assays (depositor defined):AID1509, AID1523, AID1563, AID1686, AID1701, AID1801, AID463107, AID463225, AID504400]. The experiment is classed as functional.

Experiment [28] concerns the target T5, E3 ubiquitin-protein ligase XIAP (Homo sapiens, UniProt P98170). The experiment is described as follows: Counter Screen using XIAP-Bir3 for Chemical Antagonists of Bir1/2 domains of IAP-family anti-apoptotic proteins. [Related pubchem assays (depositor defined):AID1018, AID1449, AID1514, AID1638, AID1749, AID1750, AID488957, AID488963].
Experiment [29] concerns the target T5, E3 ubiquitin-protein ligase XIAP. The experiment is described as follows: XIAP antagonists, biochemical, IAP family, fluorescence polarization (AID 1018). It is filed as functional. (In general: Fluorescence polarisation rises when a labelled molecule tumbles more slowly, as on binding a larger partner.)

Calls of active or inactive are those of the source.

T1 sequence (Q9HC97 whole entry): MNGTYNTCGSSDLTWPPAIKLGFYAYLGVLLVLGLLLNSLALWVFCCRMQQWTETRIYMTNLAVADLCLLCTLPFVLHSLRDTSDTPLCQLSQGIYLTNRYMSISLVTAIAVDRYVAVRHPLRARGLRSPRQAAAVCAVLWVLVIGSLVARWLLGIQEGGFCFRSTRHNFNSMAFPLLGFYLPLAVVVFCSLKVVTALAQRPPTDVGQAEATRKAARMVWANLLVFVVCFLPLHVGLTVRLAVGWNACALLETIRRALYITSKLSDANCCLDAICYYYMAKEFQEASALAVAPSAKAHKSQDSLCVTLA
T5 sequence (P98170 whole entry): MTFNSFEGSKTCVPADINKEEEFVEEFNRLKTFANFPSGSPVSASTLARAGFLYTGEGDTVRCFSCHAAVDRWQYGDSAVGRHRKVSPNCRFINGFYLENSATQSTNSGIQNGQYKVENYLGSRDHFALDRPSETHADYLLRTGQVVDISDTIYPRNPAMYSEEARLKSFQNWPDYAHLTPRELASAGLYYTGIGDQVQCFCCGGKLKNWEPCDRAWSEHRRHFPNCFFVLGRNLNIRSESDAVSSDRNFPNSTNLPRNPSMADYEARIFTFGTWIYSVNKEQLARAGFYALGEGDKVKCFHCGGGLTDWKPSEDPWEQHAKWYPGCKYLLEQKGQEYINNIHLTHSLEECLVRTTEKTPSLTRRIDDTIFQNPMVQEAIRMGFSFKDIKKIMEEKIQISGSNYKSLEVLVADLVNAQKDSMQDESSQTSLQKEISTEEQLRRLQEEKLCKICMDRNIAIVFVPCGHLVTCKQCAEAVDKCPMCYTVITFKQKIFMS
Sequence of Sphingosine 1-phosphate receptor 1 (P21453 whole entry): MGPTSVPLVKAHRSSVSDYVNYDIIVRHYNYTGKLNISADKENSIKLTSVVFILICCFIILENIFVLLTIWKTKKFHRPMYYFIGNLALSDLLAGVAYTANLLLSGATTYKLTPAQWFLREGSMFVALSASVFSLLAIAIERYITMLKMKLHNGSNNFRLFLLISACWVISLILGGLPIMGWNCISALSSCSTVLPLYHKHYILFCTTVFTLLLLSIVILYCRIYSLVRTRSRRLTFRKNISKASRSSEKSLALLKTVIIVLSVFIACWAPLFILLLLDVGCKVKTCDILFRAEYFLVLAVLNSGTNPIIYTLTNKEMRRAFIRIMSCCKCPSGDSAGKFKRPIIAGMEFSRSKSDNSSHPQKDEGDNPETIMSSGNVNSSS
Sequence of Sphingosine 1-phosphate receptor 2 (O95136 whole entry): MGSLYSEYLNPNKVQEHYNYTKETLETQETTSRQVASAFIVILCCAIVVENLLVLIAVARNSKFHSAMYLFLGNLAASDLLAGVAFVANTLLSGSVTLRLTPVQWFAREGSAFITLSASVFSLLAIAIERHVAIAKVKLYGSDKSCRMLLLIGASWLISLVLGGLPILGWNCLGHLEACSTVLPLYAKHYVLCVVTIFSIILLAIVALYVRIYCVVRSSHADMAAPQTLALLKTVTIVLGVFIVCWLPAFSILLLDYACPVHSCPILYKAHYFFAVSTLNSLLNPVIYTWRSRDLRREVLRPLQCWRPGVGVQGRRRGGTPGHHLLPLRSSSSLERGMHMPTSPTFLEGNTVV
Sequence of Sphingosine 1-phosphate receptor 5 (Q9H228 whole entry): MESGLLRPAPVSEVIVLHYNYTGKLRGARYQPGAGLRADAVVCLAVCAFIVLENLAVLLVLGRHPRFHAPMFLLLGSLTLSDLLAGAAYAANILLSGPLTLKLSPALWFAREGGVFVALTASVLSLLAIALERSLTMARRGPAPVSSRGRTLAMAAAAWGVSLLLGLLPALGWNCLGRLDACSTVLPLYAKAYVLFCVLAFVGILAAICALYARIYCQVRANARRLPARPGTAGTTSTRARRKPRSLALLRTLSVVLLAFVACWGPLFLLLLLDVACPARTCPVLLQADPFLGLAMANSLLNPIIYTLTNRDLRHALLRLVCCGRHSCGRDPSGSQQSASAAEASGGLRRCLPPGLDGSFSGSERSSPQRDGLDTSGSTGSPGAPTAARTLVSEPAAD

For the compound `CCCOc1ccccc1C1CC(=O)Nc2cc3c(cc21)OCO3` (centres undefined), the EC50 in [1] was 2.4 µM (active); in [2] it was 2.4 µM (inconclusive); in experiment [3], 35.8 µM (inconclusive); in [5] it was 35.8 µM (active); in [6] it was 2.97 µM (inconclusive); in [7], 2.97 µM (active). Further, the EC50 is 3.65 µM (inconclusive) in [9], > 120 µM (not active) in [10] and 0.158 µM (active) in [11]. In addition, the AC50 is 5.72 µM (active) in [4], 15.3 µM (active) in [12] and > 70 µM (inactive) in [13]. Further, the IC50 in experiment [8] is 60.1 µM (inactive).
Take `N=c1c(C(=O)NC2CCCCC2)cc2c(=O)n3ccccc3nc2n1C1CCCC1`: the IC50 in experiment [14] was > 32 µM (inactive); in experiment [15] it was 29 µM (inactive); in experiment [18], > 32 µM (inactive); in experiment [20], > 32 µM (inactive). For the same compound, the EC50 in experiment [16], in experiment [17] and in experiment [19] was > 32 µM (inactive) in each case.
As to `COc1cccc(C2CC(c3ccc(Br)cc3)=NN2C(=O)c2ccncc2)c1OC` (centres undefined), the values for the AC50 in experiment [21], in experiment [22] and in experiment [23] were 48.7 µM (active), 3.7 µM (active) and 45.2 µM (active), respectively.
For the compound `Cc1ccc(OCCOc2c(Cl)cc(Cl)cc2Cl)c([N+](=O)[O-])n1`, the EC50 in [24], in experiment [25], in experiment [26] and in experiment [27] was > 50 µM (inactive) throughout.
On to `CSc1nc(N)nc(SCC(=O)Nc2cccc(F)c2)c1C#N`, for which the IC50 is > 100 µM (inactive) in [28] and > 100 µM (not active) in experiment [29].

Broadly, the EC50 is the concentration that produces a half-maximal response. As a reminder, the AC50 is the concentration giving half of the maximal activity seen. For orientation: IC50 means the midpoint of a concentration-inhibition curve.
